The values that follow come from patent US10722501B2 (BAYER AKTIENGESELLSCHAFT, priority 2016, dated 2020).

This test has as its target T1, recombinant full-length human prolyl endopeptidase (PREP) (Homo sapiens, UniProt P48147).
T1 construct: To recombinant full-length human prolyl endopeptidase (PREP, R&D-Systems, 4308-SE); purchased R&D-Systems 4308-SE
T1 sequence (P48147 1-710): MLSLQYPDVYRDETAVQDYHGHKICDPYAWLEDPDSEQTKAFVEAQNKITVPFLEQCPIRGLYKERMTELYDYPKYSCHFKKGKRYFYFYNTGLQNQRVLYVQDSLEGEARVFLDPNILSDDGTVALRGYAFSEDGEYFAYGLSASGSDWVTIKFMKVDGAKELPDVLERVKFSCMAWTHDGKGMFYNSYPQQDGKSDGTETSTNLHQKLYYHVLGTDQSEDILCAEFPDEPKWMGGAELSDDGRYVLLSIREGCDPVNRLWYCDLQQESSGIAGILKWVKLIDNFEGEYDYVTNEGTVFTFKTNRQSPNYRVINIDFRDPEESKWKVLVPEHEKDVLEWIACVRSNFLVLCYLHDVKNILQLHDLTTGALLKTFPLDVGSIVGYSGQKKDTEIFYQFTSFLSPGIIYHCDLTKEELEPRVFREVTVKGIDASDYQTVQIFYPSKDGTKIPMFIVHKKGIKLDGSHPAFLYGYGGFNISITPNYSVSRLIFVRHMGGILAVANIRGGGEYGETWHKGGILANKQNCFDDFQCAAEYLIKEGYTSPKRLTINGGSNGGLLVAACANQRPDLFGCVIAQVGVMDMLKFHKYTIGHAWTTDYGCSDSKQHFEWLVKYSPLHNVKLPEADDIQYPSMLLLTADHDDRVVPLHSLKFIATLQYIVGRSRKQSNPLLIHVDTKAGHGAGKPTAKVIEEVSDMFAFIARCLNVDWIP
The experiment in a line: Biochemical human prolyl endopeptidase (PREP) assay with fluorescently labelled substrate. To be noted: substrate Z-Gly-Pro-AMC 50 μM, 32° C., 60 min; some as mean values from multiple independent determinations. The essentials: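 Initial rates of fluorescence increase from 50 μM Z-Gly-Pro-AMC cleavage (ex 360/em 465 nm, 60 min, 32° C) give percent PREP activity versus no-compound control, and IC50 is interpolated. Enzyme used at 0.4 nM (final, example) in Tris pH 7.5 with EDTA, GSH, BSA and Brij-35; compounds span 1 nM to 30 μM.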
By IC50 is commonly meant the concentration needed to halve the response being measured. Turning to `O=C(C1CC(C(F)(F)F)Cc2nn(Cc3ncc(F)cc3F)c(=O)n21)N1CCC(F)(F)C1` (racemic) [Example 573, (5RS,7RS)-2-[(3,5-Difluoropyridin-2-yl)methyl]-5-[(3,3-difluoropyrrolidin-1-yl)carbonyl]-7-(trifluoromethyl)-5,6,7,8-tetrahydro[1,2,4]triazolo[4,3-a]pyridin-3(2H)-one], the IC50 came to 5.9 nM. For `O=C(C1CC(C(F)(F)F)Cc2nn(Cc3ncc(F)cc3Cl)c(=O)n21)N1CCC(F)(F)C1` (racemic) [Example 575, (5RS,7RS)-2-[(3-Chloro-5-fluoropyridin-2-yl)methyl]-5-[(3,3-difluoropyrrolidin-1-yl)carbonyl]-7-(trifluoromethyl)-5,6,7,8-tetrahydro[1,2,4]triazolo[4,3-a]pyridin-3(2H)-one] the value was 7.4 nM; for `O=C(C1CC(C(F)(F)F)Cc2nn(Cc3ccc(C(F)(F)F)nc3)c(=O)n21)N1CC(F)C(F)C1` (racemic) [Example 582, (5RS,7RS)-5-{[rel-(3R,4R)-3,4-Difluoropyrrolidin-1-yl]carbonyl}-7-(trifluoromethyl)-2-{[6-(trifluoromethyl)pyridin-3-yl]methyl}-5,6,7,8-tetrahydro[1,2,4]triazolo[4,3-a]pyridin-3(2H)-one], 140 nM.

With `CC(c1ccc(Cl)cc1)n1nc2n(c1=O)C(C(=O)N1CCCC1)CCC2` (single isomer, unassigned) [Example 4, (5RS)-2-[(1 RS)-1-(4-Chlorophenyl)ethyl]-5-(pyrrolidin-1-ylcarbonyl)-5,6,7,8-tetrahydro[1,2,4]triazolo[4,3-a]pyridin-3(2H)-one], the IC50 was 2.2 nM.

For `CC(c1ccc(Cl)cc1)n1nc2n(c1=O)C(C(=O)N1CCCC1)CCC2` (single isomer, unassigned) [Example 5, (5RS)-2-[(1 RS)-1-(4-Chlorophenyl)ethyl]-5-(pyrrolidin-1-ylcarbonyl)-5,6,7,8-tetrahydro[1,2,4]triazolo[4,3-a]pyridin-3(2H)-one], the IC50 amounted to 8 nM. For `O=C(C1CCCc2nn(Cc3ccc(Cl)nc3)c(=O)n21)N1CCCC1` (single isomer, unassigned) [Example 32, (5RS)-2-[(6-Chloropyridin-3-yl)methyl]-5-(pyrrolidin-1-ylcarbonyl)-5,6,7,8-tetrahydro[1,2,4]triazolo[4,3-a]pyridin-3(2H)-one] the value was 1.48 nM; for `O=C(C1CCCc2nn(Cc3ccc(Cl)cn3)c(=O)n21)N1CCCC1` (single isomer, unassigned) [Example 34, (5RS)-2-[(5-Chloropyridin-2-yl)methyl]-5-(pyrrolidin-1-ylcarbonyl)-5,6,7,8-tetrahydro[1,2,4]triazolo[4,3-a]pyridin-3(2H)-one], 7.5 nM. Then `O=C(C1CCCc2nn(Cc3ccc(C(F)(F)F)nc3)c(=O)n21)N1CCCC1` (single isomer, unassigned) [Example 85, (5RS)-5-(Pyrrolidin-1-ylcarbonyl)-2-{[6-(trifluoromethyl)pyridin-3-yl]methyl}-5,6,7,8-tetrahydro[1,2,4]triazolo[4,3-a]pyridin-3(2H)-one], with 2.1 nM; and `O=C(C1CCCc2nn(Cc3cccc(C(F)(F)F)c3)c(=O)n21)N1CC(O)C1` (single isomer, unassigned) [Example 98, (5RS)-5-[(3-Hydroxyazetidin-1-yl)carbonyl]-2-[3-(trifluoromethyl)benzyl]-5,6,7,8-tetrahydro[1,2,4]triazolo[4,3-a]pyridin-3(2H)-one], with 257 nM; and `Cc1nc(C)c(Cn2nc3n(c2=O)C(C(=O)N2CCCC2)CCC3)nc1C` (single isomer, unassigned) [Example 104, (5RS)-5-(Pyrrolidin-1-ylcarbonyl)-2-[(3,5,6-trimethylpyrazin-2-yl)methyl]-5,6,7,8-tetrahydro[1,2,4]triazolo[4,3-a]pyridin-3(2H)-one], with 0.46 nM. For `O=C(C1CCCc2nn(Cc3cc(C(F)(F)F)c(Cl)cn3)c(=O)n21)N1CCCC1` (single isomer, unassigned) [Example 107] the value was 2.1 nM. `Cc1ccc(Cn2nc3n(c2=O)C(C(=O)N2CC(F)(F)C2)CCC3)cc1` (single isomer, unassigned) [Example 115, (5RS)-5-[(3,3-Difluoroazetidin-1-yl)carbonyl]-2-(4-methylbenzyl)-5,6,7,8-tetrahydro[1,2,4]triazolo[4,3-a]pyridin-3(2H)-one]: the IC50 came to 1.1 nM.

In the case of `Cc1ccc(Cn2nc3n(c2=O)C(C(=O)N2CC[C@H](O)C2)CCC3)cc1` (single isomer, unassigned) [Example 116], the IC50 turned out to be 3 nM. Take `Cc1ccc(Cn2nc3n(c2=O)C(C(=O)N2CCC(=O)C2)CCC3)cc1` (single isomer, unassigned) [Example 119, (5RS)-2-(4-Methylbenzyl)-5-[(3-oxopyrrolidin-1-yl)carbonyl]-5,6,7,8-tetrahydro[1,2,4]triazolo[4,3-a]pyridin-3(2H)-one]: the IC50 stood at 1.4 nM.

For the compound `Cc1ccc(Cn2nc3n(c2=O)C(C(=O)N2CC(O)C2)CCC3)cc1` (single isomer, unassigned) [Example 121, (5RS)-5-[(3-Hydroxyazetidin-1-yl)carbonyl]-2-(4-methylbenzyl)-5,6,7,8-tetrahydro[1,2,4]triazolo[4,3-a]pyridin-3(2H)-one], the IC50 was 4.3 nM.

For `Cc1ccc(Cn2nc3n(c2=O)C(C(=O)N2CCC4(C2)CC4(F)F)CCC3)cc1` (single isomer, unassigned) [Example 129, (5RS)-{[(3RS)-1,1-Difluoro-5-azaspiro[2.4]hept-5-yl]carbonyl}-2-(4-methylbenzyl)-5,6,7,8-tetrahydro[1,2,4]triazolo[4,3-a]pyridin-3(2H)-one], the IC50 came to 10 nM. For `CC1Cc2nn(Cc3ccc(C(F)(F)F)nc3)c(=O)n2C(C(=O)N2CC(O)C2)C1` (single isomer, unassigned) [Example 135, (5RS,7RS)-5-[(3-Hydroxyazetidin-1-yl)carbonyl]-7-methyl-2-{[6-(trifluoromethyl)pyridin-3-yl]methyl}-5,6,7,8-tetrahydro[1,2,4]triazolo[4,3-a]pyridin-3(2H)-one], the IC50 stood at 34.5 nM. Then `CC1Cc2nn(Cc3ccc(C(F)(F)F)nc3)c(=O)n2C(C(=O)N2CC[C@H](F)C2)C1` (single isomer, unassigned) [Example 137], with 130 nM. Then `CC1Cc2nn(Cc3ccc(C(F)(F)F)nc3)c(=O)n2C(C(=O)N2CC[C@H](F)C2)C1` (single isomer, unassigned) [Example 138], with 1 nM. Then `Cc1ccc(Cn2nc3n(c2=O)C(C(=O)N2CCCC2)C(C)CC3)cc1` (single isomer, unassigned) [Example 139, (5RS,6RS)-6-Methyl-2-(4-methylbenzyl)-5-(pyrrolidin-1-ylcarbonyl)-5,6,7,8-tetrahydro[1,2,4]triazolo[4,3-a]pyridin-3(2H)-one], with 0.87 nM. As for `Cc1ccc(Cn2nc3n(c2=O)C(C(=O)N2CCS(=O)(=O)C2)CCC3)cc1` (single isomer, unassigned) [Example 142, (5RS)-5-[(1,1-Dioxido-1,3-thiazolidin-3-yl)carbonyl]-2-(4-methylbenzyl)-5,6,7,8-tetrahydro[1,2,4]triazolo[4,3-a]pyridin-3(2H)-one], the IC50 came out at 2.55 nM.

Take `O=C(C1CCc2nn(Cc3ccnc(C(F)(F)F)c3F)c(=O)n21)N1C[C@@H](F)[C@@H](F)C1` (single isomer, unassigned) [Example 176]: the IC50 was 445 nM. With `O=C(C1CCc2nn(Cc3ccnc(C(F)(F)F)c3F)c(=O)n21)N1C[C@@H](F)[C@@H](F)C1` (single isomer, unassigned) [Example 177], the IC50 was found to be 6.9 nM.

In the case of `O=C(C1CCc2nn(Cc3ccnc(C(F)(F)F)c3F)c(=O)n21)N1CC[C@H](F)C1` (single isomer, unassigned) [Example 179], the IC50 was determined as 600 nM. With `O=C(C1CCc2nn(Cc3ccnc(C(F)(F)F)c3F)c(=O)n21)N1CC[C@H](F)C1` (single isomer, unassigned) [Example 180], the IC50 is 3.2 nM. For the compound `O=C([C@@H]1CCCc2nn(CC3CCC(C(F)(F)F)CC3)c(=O)n21)N1CCCC1` (single isomer, unassigned) [Example 185], the IC50 stood at 0.37 nM.

Consider `O=C([C@@H]1CCCc2nn(CC3CCC(C(F)(F)F)CC3)c(=O)n21)N1CCCC1` (single isomer, unassigned) [Example 186], for which the IC50 came out at 1.25 nM.

On to `Cc1ccc(Cn2nc3n(c2=O)[C@H](C(=O)N2CCC4CC42)CCC3)cc1` (single isomer, unassigned) [Example 188], for which the IC50 stood at 0.091 nM. Then `Cc1ccc(Cn2nc3n(c2=O)[C@H](C(=O)N2CCC4CC42)CCC3)cc1` (single isomer, unassigned) [Example 189], with 34 nM.
